Measurements taken from patent JP2006056855A, “免疫賦活剤、抗腫瘍剤、抗老化剤、抗肥満剤及び皮膚化粧料” (Maruzen Pharmaceutical Co Ltd, priority 2004, dated 2006).
Values after ≈ are worked out from the molar mass of the structure shown.

Key:
[1] = system: human breast cancer-derived cells (MCF-7) [ヒト乳癌由来細胞(MCF−7)]; test: Estrogen-like action test (試験例2), MTT assay; type: cell-based; settings: MCF7, sample solution 3.125 μg/mL, A/B×100 (no sample = 100%), read-out: estrogen-like action rate
[2] = system: human normal skin fibroblasts (NB1RGB) [ヒト正常皮膚線維芽細胞(NB1RGB)]; test: Fibroblast proliferation test (試験例3), MTT assay; type: cell-based; settings: 72 h, sample solution 12.5 μg/mL, 100 μL added per well, 3 days, (St−Sb)/(Ct−Cb)×100 (no sample = 100%), read-out: fibroblast proliferation promotion rate
[3] = system: normal human epidermal keratinocytes (NHEK) [正常ヒト皮膚表皮角化細胞(NHEK)]; test: Epidermal keratinocyte proliferation test (試験例4), MTT assay; type: cell-based; settings: 72 h, sample solution 3.125 μg/mL, 3 days, St/Ct×100 (no sample = 100%), read-out: epidermal keratinocyte proliferation promotion rate
[4] = target: cyclic AMP phosphodiesterase [サイクリックAMPホスホジエステラーゼ]; test: Cyclic AMP phosphodiesterase activity inhibition test (試験例5), HPLC; type: biochemical; settings: sample concentration at 50% inhibition of cyclic AMP phosphodiesterase activity, by interpolation; pH 7.5, 37℃, 30 min

IC50 [4]: 178.9 µg/mL (≈ 136 µM)
Structure (SMILES): CC1OC2OC3C(OCC(O)C3O)OC(=O)C34CCC(C)(C)CC3C3=CCC5C6(C)CC(O)C(OC7OC(CO)C(O)C(O)C7OC7OCC(OC(=O)CC(C)(O)CC(=O)OC1C(OC1OCC(O)C(O)C1O)C2O)C(O)C7O)C(C)(CO)C6CCC5(C)C3(C)CC4 (stereo not shown) [ツベイモシドI, ツベイモシドI(tubeimoside I)]
activity at 3.125 µg/mL [1]: 132 ± 3% | activity at 12.5 µg/mL [2]: 127 ± 2.3% | activity at 3.125 µg/mL [3]: 139.4 ± 1.3%
